We go through 27 compounds from PubChem BioAssay (NCI).

Test in all cases: inhibition of tumour cell growth, NCI panel, 48 h
Assay [1] deals with A498 renal.
The subject of assay [2] is A549 NSCLC.
Assay [3] relates to HL-60(TB) leukemia.
The test system of assay [4] is HOP-92 NSCLC.
Assay [5] concerns MALME-3M melanoma.
Assay [6] deals with MDA-N.
Assay [7] concerns MOLT-4 leukemia.
Assay [8] deals with NCI-H23 lung.
For assay [9], the system named is SN12C renal.
In assay [10] the test system is UO-31 renal.
In assay [11] the test system is SR leukemia.

The structures appear in SMILES notation.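 How tested: cells in 96-well plates exposed to compound for 48 hours at five concentrations. The concentration for full growth arrest is given as TGI.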

For `CCN(CC)CCC1CCCCN1CC(=O)N1c2cc(Cl)ccc2NC(=O)CC1C` (centres undefined), the TGI in assay [1], in assay [2], in [3], in [4], in assay [5] and in assay [6] was greater than 100 µM in each case. Also, the TGI in assay [7], in [8], in assay [9] and in [10] was greater than 100 µM throughout.
In the case of `COc1cccc(CCNc2c(C#N)c3n(c4ccccc4[n+]3C)c3ncccc23)c1`, the TGI in assay [1] is 57 µM; in assay [2] it was 4.04 µM; in assay [4] it was greater than 58.9 µM; in [5] it was 32.6 µM; in assay [6] it was 11.1 µM; in assay [7] it was 7.45 µM. The TGI was greater than 56.5 µM in assay [8], 32.7 µM in [9], greater than 100 µM in assay [11] and 12 µM in assay [10].
In the case of `CSc1nc(NCc2ccccc2)c2cnn(COCCO)c2n1`, the TGI in [2] was greater than 100 µM; in assay [3] it was greater than 100 µM; in assay [4], greater than 100 µM; in assay [5] it was greater than 100 µM; in assay [6], greater than 100 µM; in [7], 86.7 µM. Also, the TGI in [8], in assay [9], in [11] and in [10] was greater than 100 µM in each case.
Take `CC(=O)NC(C)(C)C1CCC(C)CC1` (centres undefined): the TGI in assay [1], in [2], in assay [3], in assay [5], in assay [6] and in assay [7] was greater than 100 µM throughout. The TGI in assay [8], in [9], in assay [11] and in assay [10] was greater than 100 µM each time.
Regarding `C(=C/c1nnnn1-c1ccccc1)/Nc1ccccc1`, the TGI is greater than 100 µM in [1]; greater than 100 µM in assay [2]; greater than 100 µM in assay [3]; 87.3 µM in assay [4]; greater than 100 µM in assay [5]; 70.4 µM in assay [6]. The TGI in assay [7] was greater than 100 µM; in assay [8], 79.2 µM; in assay [9], greater than 100 µM; in assay [10], 65.9 µM.
On to `CCC(Nc1ncnc2nc[nH]c12)C(=O)O` (centres undefined), for which the TGI in assay [1], in [2], in assay [3], in assay [4], in [5] and in assay [6] was greater than 100 µM in each case. For the same compound, the TGI in assay [8], in assay [9], in assay [11] and in assay [10] was greater than 100 µM each time.
In the case of `CN(C)CCCn1c(Cn2nc3ccccc3n2)nc2cc(C(F)(F)F)ccc21`, the TGI in assay [1] was 41.7 µM; in assay [2], greater than 100 µM; in [3], 16.5 µM; in assay [4], 89.9 µM; in assay [5] it was 24.4 µM; in assay [6], 35.6 µM. The TGI in assay [7] was 45.6 µM; in assay [8] it was greater than 100 µM; in assay [9], greater than 100 µM; in assay [10], 73.2 µM.
Take `O=c1c2c3c(sc2nc2n1NC=NN2)CCCC3`: the TGI in assay [1] was greater than 89.4 µM; in [2], greater than 100 µM; in assay [3], 7.34 µM; in [4], 38.5 µM; in assay [5], 55.3 µM; in assay [6] it was 30.9 µM. In addition, the TGI was 31.7 µM in [7], greater than 62.6 µM in assay [8], 39.6 µM in assay [9] and greater than 64.3 µM in assay [10].
Consider `CC[C@]12C=CCN3CC[C@@]4(c5cc(Br)c(OC)cc5N(C)[C@H]4[C@@](O)(C(=O)NC(Cc4c[nH]c5ccccc45)C(=O)OC)[C@@H]1O)[C@@H]32` (some centres undefined), for which the TGI is greater than 100 µM in assay [2]; 91.3 µM in [3]; greater than 100 µM in assay [4]; greater than 100 µM in assay [5]; greater than 100 µM in [6]; greater than 100 µM in [7]. In addition, the TGI is greater than 100 µM in [8], greater than 100 µM in assay [9], 34.9 µM in [11] and greater than 100 µM in [10].
`O=C1CN(c2cccc(C(F)(F)F)c2)C(=O)CN1CCN1CC(=O)N(c2cccc(C(F)(F)F)c2)CC1=O`: the TGI in [2], in assay [3], in assay [6], in assay [7], in [9] and in [11] was greater than 100 µM throughout. In assay [10], the TGI is greater than 100 µM.
For the compound `CCOC(=O)N1CCC2(CC1)C[C@@](C(C)=O)(c1ccccc1)C(C)O2` (some centres undefined), the TGI in assay [1], in assay [2], in assay [3], in assay [4], in assay [5] and in assay [6] was greater than 100 µM in each case. Further, the TGI in assay [7], in assay [8] and in [10] was greater than 100 µM throughout.
Consider `COc1ccc(/C=C/C(=O)c2ccc(Br)cc2)cc1`, for which the TGI in assay [1], in assay [2], in assay [3], in assay [5], in assay [6] and in [7] was greater than 100 µM each time. The TGI in assay [8], in assay [9], in assay [11] and in assay [10] was greater than 100 µM each time.
In the case of `COC(=O)C(=O)C(C(=O)OC)C(=O)C(=O)Nc1c(Cl)cc([N+](=O)[O-])cc1Cl` (centres undefined), the TGI in [1], in assay [2], in [3], in assay [4], in [5] and in assay [6] was greater than 100 µM in each case. Moreover, the TGI in [8], in assay [9] and in assay [10] was greater than 100 µM in each case.
With `CCN(C(=O)N[C@H](C(=O)N[C@@H](CSC)C(=O)N[C@@H](C)C(=O)OC)C(C)C)c1ccccc1`, the TGI in [2] was found to be 55 µM; in assay [4], 26.3 µM; in assay [5], 26.6 µM; in assay [6], 36.2 µM; in assay [7] it was 26.7 µM; in [8], 33.4 µM. Further, the TGI in assay [9] was 43.1 µM; in [11] it was 18.2 µM; in assay [10], 31.3 µM.
Consider `COC(=O)c1ccccc1C1CN=NC12Cc1ccc3c(c1C2=O)CCC3` (centres undefined), for which the TGI in assay [1], in assay [2], in assay [3], in assay [4], in assay [5] and in [6] was greater than 100 µM each time. Moreover, the TGI in [7], in assay [8], in assay [9] and in assay [10] was greater than 100 µM in each case.
In the case of `NC(=S)N1N=C2c3ccccc3CCC[C@H]2[C@@H]1c1ccccc1`, the TGI was 23.3 µM in [1]; greater than 53.7 µM in assay [2]; 21.5 µM in assay [5]; 0.279 µM in [6]; 18.9 µM in assay [7]; 27.8 µM in [8]. The TGI in assay [9] is 19.7 µM; in assay [11] it was greater than 32.9 µM; in assay [10] it was 15.8 µM.
Take `O=C(O)c1nn(-c2ccccc2)nc1-c1nn(-c2ccccc2)nc1C(=O)O`: the TGI in assay [2], in [3], in assay [4], in [5], in assay [6] and in assay [7] was greater than 100 µM each time. The TGI in assay [8], in [9], in assay [11] and in assay [10] was greater than 100 µM throughout.
On to `COc1ccc2[nH]c3c(c2c1)CC(=O)N1CCC[C@H](C1)CC31OCCCO1`, for which the TGI in [1], in [2], in assay [4], in [5], in assay [6] and in assay [8] was greater than 100 µM throughout. The TGI in [9], in assay [11] and in assay [10] was greater than 100 µM each time.
As for `CCNC(=S)NNC(=O)c1ccccc1Nc1ccccc1C(=O)NNC(=S)NCC`, the TGI in assay [2], in assay [3], in assay [4], in assay [5], in [6] and in assay [7] was greater than 100 µM throughout. The TGI in [8], in assay [9], in [11] and in assay [10] was greater than 100 µM each time.
Consider `COc1cccc(OC)c1NC(=O)C(=O)Nn1c(NNC(=O)c2ccncc2)nc2ccccc2c1=O`, for which the TGI in [1], in assay [2], in assay [3], in assay [4], in [5] and in assay [6] was greater than 100 µM each time. The TGI in [7], in assay [8], in assay [9] and in [10] was greater than 100 µM in each case.
Consider `Cc1cc(C)n(-c2nc(C)c(CCO)c(=O)[nH]2)n1`, for which the TGI in assay [2], in assay [3], in [4], in [5], in assay [6] and in [7] was greater than 100 µM each time. For the same compound, the TGI in [8], in assay [9], in assay [11] and in assay [10] was greater than 100 µM throughout.
For the compound `Fc1ccc(C(OCCN2CCC3CCC(C2)N3C/C=C/c2cccs2)c2ccc(F)cc2)cc1` (centres undefined), the TGI came out at 21 µM in assay [1]; 24.3 µM in [2]; 20.3 µM in [4]; 18.9 µM in [5]; 22 µM in [6]; 3.14 µM in [7]. Also, the TGI in assay [8] is 20.9 µM; in [9], 18 µM; in assay [10], 24.3 µM.
Consider `COc1cc2c[n+](C)c3c4cc(OC)c(OCc5ccccc5)cc4c(OCc4ccccc4)cc3c2cc1OC`, for which the TGI in [1] is greater than 100 µM; in assay [2] it was greater than 88.8 µM; in assay [4], 8.51 µM; in assay [5] it was 10.7 µM; in [6], 12 µM; in assay [7], 14.2 µM. For the same compound, the TGI in [8] is 20.5 µM; in assay [9] it was 33.2 µM; in assay [11] it was 6 µM; in assay [10], greater than 100 µM.
On to `Cc1nc2ccc(NC3OCC(O)C(O)C3O)cc2c(=O)n1-c1ccccc1` (centres undefined), for which the TGI in assay [1], in assay [3], in assay [5], in assay [6], in assay [7] and in assay [8] was greater than 100 µM in each case. Moreover, the TGI in [9], in assay [11] and in [10] was greater than 100 µM in each case.
Consider `CN(C)S(=O)(=O)c1nc(Cl)c2[nH]cnc2n1`, for which the TGI in [1], in assay [2], in assay [3], in assay [5], in assay [6] and in assay [7] was greater than 100 µM in each case. The TGI in assay [8], in assay [9], in [11] and in assay [10] was greater than 100 µM throughout.
As to `Cc1ccc(S(=O)(=O)N(CCNC(=O)c2cccc(O)c2O)c2cc3c4c(c2)Oc2cccc5c2C4(C)c2c(cccc2O3)O5)cc1`, the TGI in assay [1], in [2], in assay [5], in assay [6], in assay [7] and in [8] was greater than 100 µM each time. The TGI in assay [9], in assay [11] and in assay [10] was greater than 100 µM in each case.
In the case of `COc1cc(S(=O)(=O)Nc2ccc(-c3csc(N4C(=O)CSC4c4ccccc4O)n3)cc2)ccc1Cl` (centres undefined), the TGI in assay [2] is greater than 100 µM; in assay [3], 49.8 µM; in assay [4], 82.1 µM; in assay [5], greater than 100 µM; in assay [6], greater than 100 µM; in assay [7] it was greater than 100 µM. Also, the TGI in assay [8], in assay [9], in assay [11] and in assay [10] was greater than 100 µM in each case.
